# Measurements published in patent US6358885B1, “Substituted phenylheterocyclic herbicides” (Mississippi State University, priority 1992, dated 2002).
# How the values were obtained:
# cocklebur = assay: Test B preemergence/postemergence greenhouse plant response rating 0 to 10; type: in vivo, Xanthium pensylvanicum; conditions: for Plant response rating, Cocklebur: 0 to 10 scale
# Procedure, shortened: (§1)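 Test chemicals, dissolved in a non-phytotoxic solvent, were applied to soil at planting and, at the same time, over foliage of seedlings at the one to four leaf stage.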
# rice [1] = assay: as above; type: in vivo, Oryza sativa; conditions: 0 to 10 scale
# Procedure, shortened: as §1
# soybean = assay: as above; type: in vivo, Glycine max; conditions: 0 to 10 scale
# Procedure, shortened: as §1
# wild buckwheat = assay: as above; type: in vivo, Polygonum convolvulus; conditions: 0 to 10 scale
# Procedure, shortened: as §1
# purple nutsedge = assay: as above; type: in vivo, Cyperus rotundus; conditions: 0 to 10 scale
# Procedure, shortened: as §1
# bedstraw = assay: Test C preemergence/postemergence greenhouse plant response rating 0 to 100; type: in vivo, Galium aparine; conditions: for Plant response rating, Bedstraw: 0 to 100 scale
# Excerpt: (§2) The compounds evaluated in this test were formulated in a non-phytoxic solvent and applied to the soil surface before plant seedlings emerged (preemergence application), to water that covered the soil surface (flood application), and to plants that were in the one-to-four leaf stage (postemergence application). A sandy loam soil was used for the preemergence and postemergence tests, while a silt loam soil was used in the flood test. Water depth was approximately 2.5 cm for the flood test and was maintained at this level for the duration of the test. Plant species in the preemergence and postemergence tests consisted of barley (Hordeum vulgare), bedstraw (Galium aparine), blackgrass (Alopecurus myosuroides), chickweed (Stellaria media), corn (Zea mays), cotton (Gossypium hirsutum), crabgrass (Digitaria sanguinalis), downy brome (Bromus tectorum), giant foxtail (Setaria faberii), lambsquarters (Chenopodium album), morningglory (Ipomoea hederacea), pigweed ([…]), rape (Brassica napus), ryegrass (Lolium multiflorum), sorghum (Sorghum bicolor), soybean (Glycine max), speedwell (Veronica persica), sugar beet (Beta vulgaris), velvetleaf (Abutilon theophrasti), wheat (Triticum aestivum), wild buckwheat (Polygonum convolvulus), and wild oat (Avena fatua). All plant species were planted one day before application of the compound for the preemergence portion-of this test. Plantings of these species were adjusted to produce plants of appropriate size for the post-emergence portion of the test. […] All plant species were grown using normal greenhouse practices. Visual evaluations of injury expressed on treated plants, when compared to untreated controls, were recorded approximately fourteen to twenty one days after application of the test compound. […] A dash (-) response means no test result.
# blackgrass = assay: as above; type: in vivo, Alopecurus myosuroides; conditions: for Plant response rating, Blackgrass: 0 to 100 scale
# Excerpt: as §2
# chickweed = assay: as above; type: in vivo, Stellaria media; conditions: for Plant response rating, Chickweed: 0 to 100 scale
# Excerpt: as §2
# corn = assay: as above; type: in vivo, Zea mays; conditions: for Plant response rating, Corn: 0 to 100 scale
# Excerpt: as §2
# cotton = assay: as above; type: in vivo, Gossypium hirsutum; conditions: for Plant response rating, Cotton: 0 to 100 scale
# Excerpt: as §2
# giant foxtail = assay: as above; type: in vivo, Setaria faberii; conditions: for Plant response rating, Giant foxtail: 0 to 100 scale
# Excerpt: as §2
# pigweed = assay: as above; type: in vivo, Amaranthusretroflexus; conditions: for Plant response rating Pigweed: 0 to 100 scale
# Excerpt: as §2
# sugar beet = assay: as above; type: in vivo, Beta vulgaris; conditions: for Plant response rating, Sugar beet: 0 to 100 scale
# Excerpt: as §2
# velvetleaf = assay: as above; type: in vivo, Abutilon theophrasti; conditions: for Plant response rating, Velvetleaf: 0 to 100 scale
# Excerpt: as §2
# rice [2] = assay: Test C flood test plant response rating 0 to 100; type: in vivo, Oryza sativa; conditions: for Plant response rating Rice Japonica: flood test species listed under POSTEMERGENCE, 0 to 100 scale
# Excerpt: as §2
# umbrella sedge = assay: Test C flood test plant response rating 0 to 100; type: in vivo, Cyperus difformis; conditions: for Plant response rating Umbrella sedge: flood test species listed under POSTEMERGENCE, 0 to 100 scale
# Excerpt: as §2
# duck salad = assay: Test C flood test plant response rating 0 to 100; type: in vivo, Heteranthera limosa; conditions: for Plant response rating Duck salad: flood test species listed under POSTEMERGENCE, 0 to 100 scale
# Excerpt: as §2
# [3] = POSTEMERGENCE section, flood test, Rate 4 g/ha
# [4] = Rate 16 g/ha, under POSTEMERGENCE head (flood test species)
structure (smiles),measurement,setting,value
C#CCOc1cc(-c2nn3c(c2Br)CCCC3)c(F)cc1Cl [Compound 26],"Plant response rating (0 to 10 scale), Cocklebur","cocklebur; POSTEMERGENCE, Rate 50 g/ha",10
same,"Plant response rating, Cocklebur","cocklebur; POSTEMERGENCE, Rate 200 g/ha",10
same,"Plant response rating, Cocklebur","cocklebur; PREEMERGENCE, Rate 50 g/ha",1
same,"Plant response rating, Cocklebur","cocklebur; Rate 200 g/ha, PREEMERGENCE",9
same,"Plant response rating, Rice","rice [1]; POSTEMERGENCE, Rate 50 g/ha",5
same,"Plant response rating, Rice","rice [1]; POSTEMERGENCE, Rate 200 g/ha",6
same,"Plant response rating, Rice","rice [1]; PREEMERGENCE, Rate 50 g/ha",0
same,"Plant response rating, Rice","rice [1]; Rate 200 g/ha, PREEMERGENCE",3
same,"Plant response rating, Soybean","soybean; POSTEMERGENCE, Rate 50 g/ha",8
same,"Plant response rating, Soybean","soybean; POSTEMERGENCE, Rate 200 g/ha",9
same,"Plant response rating, Soybean","soybean; PREEMERGENCE, Rate 50 g/ha",1
same,"Plant response rating, Soybean","soybean; Rate 200 g/ha, PREEMERGENCE",3
same,"Plant response rating, Wild buckwheat","wild buckwheat; POSTEMERGENCE, Rate 50 g/ha",10
same,"Plant response rating, Wild buckwheat","wild buckwheat; POSTEMERGENCE, Rate 200 g/ha",10
same,"Plant response rating, Wild buckwheat","wild buckwheat; PREEMERGENCE, Rate 50 g/ha",7
same,"Plant response rating, Wild buckwheat","wild buckwheat; Rate 200 g/ha, PREEMERGENCE",10
same,"Plant response rating, Nutsedge","purple nutsedge; POSTEMERGENCE, Rate 200 g/ha",4
same,"Plant response rating, Nutsedge","purple nutsedge; PREEMERGENCE, Rate 50 g/ha",0
same,"Plant response rating, Nutsedge","purple nutsedge; Rate 200 g/ha, PREEMERGENCE",0
same,"Plant response rating, Bedstraw","bedstraw; POSTEMERGENCE, 62 g/ha",100
same,"Plant response rating, Bedstraw","bedstraw; POSTEMERGENCE, 250 g/ha",100
same,"Plant response rating, Bedstraw","bedstraw; PREEMERGENCE, 62 g/ha",100
same,"Plant response rating, Bedstraw","bedstraw; PREEMERGENCE, 250 g/ha",100
same,"Plant response rating (0 to 100), Bedstraw","bedstraw; PREEMERGENCE, Rate 4 g/ha",20
same,"Plant response rating (0 to 100), Bedstraw","bedstraw; Rate 4 g/ha, POSTEMERGENCE",70
same,"Plant response rating (0 to 100), Bedstraw","bedstraw; Rate 16 g/ha, POSTEMERGENCE",80
same,"Plant response rating (0 to 100), Bedstraw","bedstraw; Rate 16 g/ha, PREEMERGENCE",60
same,"Plant response rating, Blackgrass","blackgrass; POSTEMERGENCE, 62 g/ha",40
same,"Plant response rating, Blackgrass","blackgrass; POSTEMERGENCE, 250 g/ha",70
same,"Plant response rating, Blackgrass","blackgrass; PREEMERGENCE, 62 g/ha",20
same,"Plant response rating, Blackgrass","blackgrass; PREEMERGENCE, 250 g/ha",40
same,"Plant response rating (0 to 100), Blackgrass","blackgrass; PREEMERGENCE, Rate 4 g/ha",0
same,"Plant response rating (0 to 100), Blackgrass","blackgrass; Rate 4 g/ha, POSTEMERGENCE",30
same,"Plant response rating (0 to 100), Blackgrass","blackgrass; Rate 16 g/ha, POSTEMERGENCE",40
same,"Plant response rating (0 to 100), Blackgrass","blackgrass; Rate 16 g/ha, PREEMERGENCE",0
same,"Plant response rating, Chickweed","chickweed; POSTEMERGENCE, 62 g/ha",100
same,"Plant response rating, Chickweed","chickweed; POSTEMERGENCE, 250 g/ha",100
same,"Plant response rating, Chickweed","chickweed; PREEMERGENCE, 62 g/ha",100
same,"Plant response rating, Chickweed","chickweed; PREEMERGENCE, 250 g/ha",100
same,"Plant response rating (0 to 100), Chickweed","chickweed; PREEMERGENCE, Rate 4 g/ha",50
same,"Plant response rating (0 to 100), Chickweed","chickweed; Rate 4 g/ha, POSTEMERGENCE",50
same,"Plant response rating (0 to 100), Chickweed","chickweed; Rate 16 g/ha, POSTEMERGENCE",80
same,"Plant response rating (0 to 100), Chickweed","chickweed; Rate 16 g/ha, PREEMERGENCE",50
same,"Plant response rating, Corn","corn; POSTEMERGENCE, 62 g/ha",50
same,"Plant response rating, Corn","corn; POSTEMERGENCE, 250 g/ha",50
same,"Plant response rating, Corn","corn; PREEMERGENCE, 62 g/ha",0
same,"Plant response rating, Corn","corn; PREEMERGENCE, 250 g/ha",30
same,"Plant response rating (0 to 100), Corn","corn; PREEMERGENCE, Rate 4 g/ha",0
same,"Plant response rating (0 to 100), Corn","corn; Rate 4 g/ha, POSTEMERGENCE",30
same,"Plant response rating (0 to 100), Corn","corn; Rate 16 g/ha, POSTEMERGENCE",40
same,"Plant response rating (0 to 100), Corn","corn; Rate 16 g/ha, PREEMERGENCE",0
same,"Plant response rating, Cotton","cotton; POSTEMERGENCE, 62 g/ha",100
same,"Plant response rating, Cotton","cotton; POSTEMERGENCE, 250 g/ha",100
same,"Plant response rating (0 to 100), Cotton","cotton; POSTEMERGENCE, Rate 4 g/ha",100
same,"Plant response rating, Cotton","cotton; PREEMERGENCE, 62 g/ha",0
same,"Plant response rating, Cotton","cotton; PREEMERGENCE, 250 g/ha",100
same,"Plant response rating (0 to 100), Cotton","cotton; PREEMERGENCE, Rate 4 g/ha",0
same,"Plant response rating (0 to 100), Cotton","cotton; Rate 16 g/ha, POSTEMERGENCE",100
same,"Plant response rating (0 to 100), Cotton","cotton; Rate 16 g/ha, PREEMERGENCE",0
same,"Plant response rating, Giant foxtail","giant foxtail; POSTEMERGENCE, 62 g/ha",50
same,"Plant response rating, Giant foxtail","giant foxtail; POSTEMERGENCE, 250 g/ha",70
same,"Plant response rating (0 to 100), Giant foxtail","giant foxtail; POSTEMERGENCE, Rate 4 g/ha",0
same,"Plant response rating, Giant foxtail","giant foxtail; PREEMERGENCE, 62 g/ha",70
same,"Plant response rating, Giant foxtail","giant foxtail; PREEMERGENCE, 250 g/ha",100
same,"Plant response rating (0 to 100), Giant foxtail","giant foxtail; PREEMERGENCE, Rate 4 g/ha",0
same,"Plant response rating (0 to 100), Giant foxtail","giant foxtail; Rate 16 g/ha, POSTEMERGENCE",40
same,"Plant response rating (0 to 100), Giant foxtail","giant foxtail; Rate 16 g/ha, PREEMERGENCE",30
same,Plant response rating Pigweed,"pigweed; POSTEMERGENCE, 62 g/ha",100
same,Plant response rating Pigweed,"pigweed; POSTEMERGENCE, 250 g/ha",100
same,"Plant response rating (0 to 100), Pigweed","pigweed; POSTEMERGENCE, Rate 4 g/ha",100
same,Plant response rating Pigweed,"pigweed; PREEMERGENCE, 62 g/ha",100
same,Plant response rating Pigweed,"pigweed; PREEMERGENCE, 250 g/ha",100
same,"Plant response rating (0 to 100), Pigweed","pigweed; PREEMERGENCE, Rate 4 g/ha",30
same,"Plant response rating (0 to 100), Pigweed","pigweed; Rate 16 g/ha, POSTEMERGENCE",100
same,"Plant response rating (0 to 100), Pigweed","pigweed; Rate 16 g/ha, PREEMERGENCE",100
same,"Plant response rating, Sugar beet","sugar beet; POSTEMERGENCE, 62 g/ha",100
same,"Plant response rating, Sugar beet","sugar beet; POSTEMERGENCE, 250 g/ha",100
same,"Plant response rating (0 to 100), Sugar beet","sugar beet; POSTEMERGENCE, Rate 4 g/ha",100
same,"Plant response rating, Sugar beet","sugar beet; PREEMERGENCE, 250 g/ha",100
same,"Plant response rating (0 to 100), Sugar beet","sugar beet; PREEMERGENCE, Rate 4 g/ha",0
same,"Plant response rating (0 to 100), Sugar beet","sugar beet; Rate 16 g/ha, POSTEMERGENCE",100
same,"Plant response rating (0 to 100), Sugar beet","sugar beet; Rate 16 g/ha, PREEMERGENCE",20
same,"Plant response rating, Velvetleaf","velvetleaf; POSTEMERGENCE, 62 g/ha",100
same,"Plant response rating, Velvetleaf","velvetleaf; POSTEMERGENCE, 250 g/ha",100
same,"Plant response rating (0 to 100), Velvetleaf","velvetleaf; POSTEMERGENCE, Rate 4 g/ha",90
same,"Plant response rating, Velvetleaf","velvetleaf; PREEMERGENCE, 250 g/ha",100
same,"Plant response rating (0 to 100), Velvetleaf","velvetleaf; PREEMERGENCE, Rate 4 g/ha",50
same,"Plant response rating (0 to 100), Velvetleaf","velvetleaf; Rate 16 g/ha, POSTEMERGENCE",100
same,"Plant response rating (0 to 100), Velvetleaf","velvetleaf; Rate 16 g/ha, PREEMERGENCE",90
same,"Plant response rating (0 to 100), Rice Japonica",rice [2]; [3],40
same,"Plant response rating (0 to 100), Rice Japonica",rice [2]; [4],65
same,Plant response rating Rice Japonica,rice [2]; 62 g/ha,80
same,Plant response rating Rice Japonica,rice [2]; 250 g/ha,85
same,"Plant response rating (0 to 100), Umbrella sedge",umbrella sedge; [3],0
same,"Plant response rating (0 to 100), Umbrella sedge",umbrella sedge; [4],70
same,Plant response rating Umbrella sedge,umbrella sedge; 62 g/ha,95
same,Plant response rating Umbrella sedge,umbrella sedge; 250 g/ha,100
same,"Plant response rating (0 to 100), Duck salad",duck salad; [3],55
same,"Plant response rating (0 to 100), Duck salad",duck salad; [4],60
same,Plant response rating Duck salad,duck salad; 62 g/ha,70
same,Plant response rating Duck salad,duck salad; 250 g/ha,90
